The target of assay [1] is T1, human HA-PPARα (Homo sapiens, UniProt Q07869).
T1 construct: expressed in transfected cells; host or cells: HEK293
T1 sequence (Q07869 1-468): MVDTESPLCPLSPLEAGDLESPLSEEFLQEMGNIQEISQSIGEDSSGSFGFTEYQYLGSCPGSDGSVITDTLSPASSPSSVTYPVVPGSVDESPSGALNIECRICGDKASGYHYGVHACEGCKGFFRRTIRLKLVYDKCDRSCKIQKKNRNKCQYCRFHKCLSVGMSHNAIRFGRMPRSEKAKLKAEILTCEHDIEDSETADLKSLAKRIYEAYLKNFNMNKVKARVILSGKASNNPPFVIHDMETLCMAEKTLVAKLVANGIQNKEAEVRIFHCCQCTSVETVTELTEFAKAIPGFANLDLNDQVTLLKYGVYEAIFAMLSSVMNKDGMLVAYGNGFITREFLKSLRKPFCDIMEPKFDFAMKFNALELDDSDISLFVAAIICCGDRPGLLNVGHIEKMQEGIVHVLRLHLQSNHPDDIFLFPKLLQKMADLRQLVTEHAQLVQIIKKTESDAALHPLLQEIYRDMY
The experiment in a line: PPRE luciferase activity assay in HEK293 cells transfected with HA-PPARα. Type of assay: cell-based. The settings on record: HEK293, PPRE-pk-Luc. Set-up: transcriptional activity of PPARα: dose or concentration left out as unconfirmed. How it is done:
(§1) Figure 2 MD001 induces the expression of target genes through PPARα and PPARγ activation. HEK293 cells were transiently co-transfected with human HA-PPARα (A) and HA-PPARγ (B) expression vectors along with the reporter plasmid (PPRE-pk-Luc) or control reporter plasmid (pk-Luc) with Renilla vector for 24 h. Cells were treated with MD001 (10 μM), rosiglitazone (rosi) (10 μM) or WY14643 (WY) (10 μM) for 24 h. Luciferase activity was normalised to Renilla luciferase activity as described in the Methods section. **, vs. vehicle. (C) HepG2 cells were treated with MD001 (10 μM) for 24 h, and total RNA was isolated and synthesised into cDNA. Relative expression was quantitated using qRT-PCR. **, vs. vehicle. (D,E) HepG2 cells were transfected with control siRNA, PPARα siRNA (D), or PPARγ siRNA (E) for 48 h and treated with vehicle, WY14643 (10 μM), rosiglitazone (10 μM) or MD001 (10 μM) for 24 h. Subsequently, cells were harvested for total RNA isolation. Relative expression of target genes was quantitated using qRT-PCR. ^#, vs. control siRNA; ^‡, vs. control siRNA/vehicle; ^§, vs. control siRNA/WY; * and **, vs. control siRNA/MD001. Data represent the mean ± SD of three independent experiments. *P < 0.05, **P < 0.01, ^#P < 0.01, ^‡P < 0.01, and ^§P < 0.01.
(§2) For transient transfection, cells were transfected with plasmid DNA constructs by polyethylenimine (PEI, Polysciences, Inc., Warrington, PA, USA) according to the manufacturer’s instructions. Transcription activity assays of PPARα and PPARγ in HEK293 cells were performed by co-transfection of HA-PPARα, HA-PPARγ, and peroxisome proliferator-response element (PPRE) reporter plasmid (PPRE-pk-Luc) or control reporter plasmid (pk-Luc) with Renilla vector for 24 h. […] Luciferase activity was measured with the Dual-Luciferase Reporter Assay System (Promega, Madison, WI, USA) and quantified using GloMax (Promega, USA) according to the manufacturer’s protocol. […]
(§3) Luciferase activity was measured as described in the Methods section. […]

Assay [2] deals with T2, human HA-PPARγ (Homo sapiens, UniProt P37231).
T2 construct: expressed in transfected cells; host or cells: HEK293
T2 sequence (P37231 1-505): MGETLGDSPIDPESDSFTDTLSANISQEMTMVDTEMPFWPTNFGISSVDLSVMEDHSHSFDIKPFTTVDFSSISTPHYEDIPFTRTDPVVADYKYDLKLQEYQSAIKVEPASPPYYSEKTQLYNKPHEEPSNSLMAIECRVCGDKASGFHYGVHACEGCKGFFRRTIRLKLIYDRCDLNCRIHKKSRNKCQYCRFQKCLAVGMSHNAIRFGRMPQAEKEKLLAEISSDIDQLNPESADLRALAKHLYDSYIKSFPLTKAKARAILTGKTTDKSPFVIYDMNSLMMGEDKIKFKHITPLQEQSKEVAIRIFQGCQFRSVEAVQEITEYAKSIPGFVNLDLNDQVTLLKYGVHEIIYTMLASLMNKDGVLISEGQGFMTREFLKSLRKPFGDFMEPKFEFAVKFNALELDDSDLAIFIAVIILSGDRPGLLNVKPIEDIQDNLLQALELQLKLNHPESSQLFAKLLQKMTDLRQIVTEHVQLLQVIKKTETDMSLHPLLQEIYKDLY
Description: PPRE luciferase activity assay in HEK293 cells transfected with HA-PPARγ. The format is cell-based. The arrangement: transcriptional activity of PPARγ: dose or concentration left out as unconfirmed. The settings on record: HEK293, PPRE-pk-Luc. How it is done:
as §1, §2, §3

Regarding `Cc1c(O)cc(O)c2c(-c3ccccc3)c(C(=O)/C=C/c3ccccc3)c(=O)oc12` [MD001], the “transcription via PPARα activation (luciferase activity)” value in assay [1] (10 μM, 24 h, vs. vehicle) is given as “significantly increased”. Also, the “transcriptional activity of PPARα” value in assay [1] (24 h (Supplementary Fig. S2)) was “promoted simultaneous transcriptional activity”. Also, the “transcription via PPARγ activation (luciferase activity)” value in assay [2] (10 μM, 24 h, vs. vehicle) was “significantly increased”. Besides, the “transcriptional activity of PPARγ” value in assay [2] (24 h (Supplementary Fig. S2)) is reported as “promoted simultaneous transcriptional activity”.

For the origin of these results see publication PMC6367362, “MD001, a Novel Peroxisome Proliferator-activated Receptor α/γ Agonist, Improves Glucose and Lipid Metabolism” (Scientific Reports, 2019).
